Results: ChEMBL document CHEMBL1201862, “PubChem BioAssay data set” (2004)
Each block holds one molecule with its values, some of them ahead of it. Activity calls are given as the source filed them.

How the values were obtained:
Format in all cases: functional
[1] = target: T1, Apoptotic protease-activating factor 1 (Homo sapiens, UniProt O14727)
T1 sequence (O14727 whole entry): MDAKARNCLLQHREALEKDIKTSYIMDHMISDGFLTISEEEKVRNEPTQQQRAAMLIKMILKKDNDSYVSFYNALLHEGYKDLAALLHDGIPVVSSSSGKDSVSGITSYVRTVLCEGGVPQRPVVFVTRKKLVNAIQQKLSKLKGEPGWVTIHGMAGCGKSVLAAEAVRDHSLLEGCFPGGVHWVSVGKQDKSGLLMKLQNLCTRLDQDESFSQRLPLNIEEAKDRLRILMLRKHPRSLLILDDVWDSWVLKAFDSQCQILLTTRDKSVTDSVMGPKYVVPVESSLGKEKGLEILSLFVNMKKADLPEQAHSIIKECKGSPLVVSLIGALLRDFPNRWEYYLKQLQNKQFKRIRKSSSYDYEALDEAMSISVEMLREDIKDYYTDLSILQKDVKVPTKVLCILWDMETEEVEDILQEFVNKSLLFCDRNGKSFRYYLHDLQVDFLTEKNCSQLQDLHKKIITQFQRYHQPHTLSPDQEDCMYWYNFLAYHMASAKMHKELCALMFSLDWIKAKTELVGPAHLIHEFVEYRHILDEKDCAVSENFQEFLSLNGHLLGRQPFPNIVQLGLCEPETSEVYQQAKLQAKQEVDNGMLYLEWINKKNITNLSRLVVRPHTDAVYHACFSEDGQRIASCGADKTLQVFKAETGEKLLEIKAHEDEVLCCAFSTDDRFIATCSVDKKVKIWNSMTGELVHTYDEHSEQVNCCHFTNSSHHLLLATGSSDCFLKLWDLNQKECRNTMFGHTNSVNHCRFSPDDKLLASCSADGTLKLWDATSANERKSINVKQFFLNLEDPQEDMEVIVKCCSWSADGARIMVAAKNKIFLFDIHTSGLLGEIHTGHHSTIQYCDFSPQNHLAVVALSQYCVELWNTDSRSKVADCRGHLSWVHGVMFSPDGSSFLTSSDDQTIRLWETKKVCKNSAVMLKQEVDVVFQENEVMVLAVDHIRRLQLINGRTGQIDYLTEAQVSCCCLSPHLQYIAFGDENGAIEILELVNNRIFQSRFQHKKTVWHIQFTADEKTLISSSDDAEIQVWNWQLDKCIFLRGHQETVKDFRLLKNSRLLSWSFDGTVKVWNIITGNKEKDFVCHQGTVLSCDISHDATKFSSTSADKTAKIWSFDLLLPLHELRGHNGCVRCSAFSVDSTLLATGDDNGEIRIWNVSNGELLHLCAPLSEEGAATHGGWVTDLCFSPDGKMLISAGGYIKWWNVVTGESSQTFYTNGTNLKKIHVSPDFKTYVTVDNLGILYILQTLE

[2] = target: Megakaryocyte-associated tyrosine-protein kinase (Homo sapiens, UniProt P42679);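 note: affinity measured as one member of a kinase panel (Navigating the Kinome) against MATK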
[3] = target: Ribosomal protein S6 kinase alpha-3 (Homo sapiens, UniProt P51812);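 note: measured within a kinome-wide profiling panel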
[4] = target: Tyrosine-protein kinase JAK2 (Homo sapiens, UniProt O60674);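 note: JAK2 tested as one member of a kinase panel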
[5] = target: Eukaryotic elongation factor 2 kinase (Homo sapiens, UniProt O00418)
[6] = target: Tyrosine-protein kinase Lck (Homo sapiens, UniProt P06239);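 note: lck was assayed as one member of a kinase panel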
[7] = target: SRSF protein kinase 1 (Homo sapiens, UniProt Q96SB4);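 note: measured as one member of a kinome-wide kinase profiling panel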
[8] = target: Mast/stem cell growth factor receptor Kit (Homo sapiens, UniProt P10721);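 note: KIT entry within a kinase panel assay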
[9] = target: Fibroblast growth factor receptor 1 (Homo sapiens, UniProt P11362)
[10] = target: LIM domain kinase 1 (Homo sapiens, UniProt P53667); test: Navigating the Kinome. Panel member name: LIMK1
[11] = target: Homeodomain-interacting protein kinase 2 (Homo sapiens, UniProt Q9H2X6);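 note: measured within a kinome-wide kinase profiling panel, HIPK2 being one panel member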
[12] = target: Protein-tyrosine kinase 2-beta (Homo sapiens, UniProt Q14289)
[13] = target: Serine/threonine-protein kinase pim-3 (Homo sapiens, UniProt Q86V86);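 note: value obtained as one member of a broad kinase panel profiling effort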
[14] = target: Proto-oncogene tyrosine-protein kinase Src (Homo sapiens, UniProt P12931);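 note: SRC entry within a kinome-wide kinase profiling panel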
[15] = target: Tyrosine-protein kinase Srms (Homo sapiens, UniProt Q9H3Y6);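 note: SRMS measured as one member of a kinome-wide kinase profiling panel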
[16] = target: Glycogen synthase kinase-3 alpha (Homo sapiens, UniProt P49840);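 note: GSK3A result taken from a broad kinome-wide kinase panel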
[17] = target: Serine/threonine-protein kinase Chk1 (Homo sapiens, UniProt O14757);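 note: measured as one member of a kinome-wide kinase profiling panel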
[18] = target: Insulin-like growth factor 1 receptor (Homo sapiens, UniProt P08069); test: Navigating the Kinome. Panel member name: IGF1R
[19] = target: Misshapen-like kinase 1 (Homo sapiens, UniProt Q8N4C8);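 note: kinome panel screen with MINK as the panel member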
[20] = target: Dual specificity tyrosine-phosphorylation-regulated kinase 4 (Homo sapiens, UniProt Q9NR20)
[21] = target: Platelet-derived growth factor receptor alpha (Homo sapiens, UniProt P16234); test: Navigating the Kinome. Panel member name: PDGFRA
[22] = target: Tyrosine-protein kinase Fer (Homo sapiens, UniProt P16591);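 note: FER tested as one member of a kinome panel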
[23] = target: Serine/threonine-protein kinase pim-2 (Homo sapiens, UniProt Q9P1W9);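 note: value comes from a broad kinase panel profiling study in which PIM2 was one of the panel members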
[24] = target: STE20-like serine/threonine-protein kinase (Homo sapiens, UniProt Q9H2G2)
[25] = target: Lymphokine-activated killer T-cell-originated protein kinase (Homo sapiens, UniProt Q96KB5);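 note: value comes from a kinase panel screen in which TOPK was one of the panel members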
[26] = target: Serine/threonine-protein kinase BRSK1 (Homo sapiens, UniProt Q8TDC3);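 note: measured within a kinome-wide kinase panel, with the target listed as KIAA1811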

Lymphokine-activated killer T-cell-originated protein kinase, sequence (Q96KB5 whole entry): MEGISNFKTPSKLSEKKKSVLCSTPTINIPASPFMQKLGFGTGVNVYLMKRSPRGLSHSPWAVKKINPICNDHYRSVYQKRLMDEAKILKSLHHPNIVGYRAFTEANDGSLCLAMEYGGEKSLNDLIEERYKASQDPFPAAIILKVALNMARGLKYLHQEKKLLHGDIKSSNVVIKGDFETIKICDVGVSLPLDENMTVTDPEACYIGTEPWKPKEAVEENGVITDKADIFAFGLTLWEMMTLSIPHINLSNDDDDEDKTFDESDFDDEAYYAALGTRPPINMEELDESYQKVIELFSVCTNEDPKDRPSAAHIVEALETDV
Megakaryocyte-associated tyrosine-protein kinase, sequence (P42679 whole entry): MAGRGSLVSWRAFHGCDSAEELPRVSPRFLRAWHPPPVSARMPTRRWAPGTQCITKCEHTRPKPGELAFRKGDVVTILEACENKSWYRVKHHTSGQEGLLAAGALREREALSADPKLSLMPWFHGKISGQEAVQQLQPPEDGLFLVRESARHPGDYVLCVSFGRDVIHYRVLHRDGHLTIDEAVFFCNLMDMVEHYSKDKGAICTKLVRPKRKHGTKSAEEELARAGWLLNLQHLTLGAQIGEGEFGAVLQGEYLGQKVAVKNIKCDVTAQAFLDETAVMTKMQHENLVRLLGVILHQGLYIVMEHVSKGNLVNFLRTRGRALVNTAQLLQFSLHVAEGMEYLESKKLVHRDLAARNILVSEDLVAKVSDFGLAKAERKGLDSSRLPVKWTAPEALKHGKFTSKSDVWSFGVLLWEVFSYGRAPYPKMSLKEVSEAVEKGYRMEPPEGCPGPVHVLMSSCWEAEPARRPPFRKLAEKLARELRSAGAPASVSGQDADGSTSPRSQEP
Insulin-like growth factor 1 receptor, sequence (P08069 31-736 limits assumed): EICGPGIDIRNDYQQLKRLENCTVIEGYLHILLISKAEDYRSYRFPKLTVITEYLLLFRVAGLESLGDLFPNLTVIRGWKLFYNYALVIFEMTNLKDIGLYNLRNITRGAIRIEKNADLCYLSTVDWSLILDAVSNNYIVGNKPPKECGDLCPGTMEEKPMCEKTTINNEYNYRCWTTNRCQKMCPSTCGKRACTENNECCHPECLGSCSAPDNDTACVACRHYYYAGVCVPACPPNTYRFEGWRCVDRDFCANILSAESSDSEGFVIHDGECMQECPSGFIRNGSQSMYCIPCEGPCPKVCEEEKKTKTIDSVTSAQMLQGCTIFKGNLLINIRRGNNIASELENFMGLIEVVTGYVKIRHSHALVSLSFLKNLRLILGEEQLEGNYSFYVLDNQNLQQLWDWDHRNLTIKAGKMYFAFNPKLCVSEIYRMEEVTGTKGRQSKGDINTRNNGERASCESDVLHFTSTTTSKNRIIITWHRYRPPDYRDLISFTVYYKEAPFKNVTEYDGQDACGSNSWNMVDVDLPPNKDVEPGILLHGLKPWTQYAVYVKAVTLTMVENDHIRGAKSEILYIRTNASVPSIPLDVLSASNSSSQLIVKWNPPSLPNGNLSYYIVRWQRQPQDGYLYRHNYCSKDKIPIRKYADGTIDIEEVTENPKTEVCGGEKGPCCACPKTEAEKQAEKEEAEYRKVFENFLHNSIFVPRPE
Insulin-like growth factor 1 receptor, sequence (P08069 741-1367 limits assumed): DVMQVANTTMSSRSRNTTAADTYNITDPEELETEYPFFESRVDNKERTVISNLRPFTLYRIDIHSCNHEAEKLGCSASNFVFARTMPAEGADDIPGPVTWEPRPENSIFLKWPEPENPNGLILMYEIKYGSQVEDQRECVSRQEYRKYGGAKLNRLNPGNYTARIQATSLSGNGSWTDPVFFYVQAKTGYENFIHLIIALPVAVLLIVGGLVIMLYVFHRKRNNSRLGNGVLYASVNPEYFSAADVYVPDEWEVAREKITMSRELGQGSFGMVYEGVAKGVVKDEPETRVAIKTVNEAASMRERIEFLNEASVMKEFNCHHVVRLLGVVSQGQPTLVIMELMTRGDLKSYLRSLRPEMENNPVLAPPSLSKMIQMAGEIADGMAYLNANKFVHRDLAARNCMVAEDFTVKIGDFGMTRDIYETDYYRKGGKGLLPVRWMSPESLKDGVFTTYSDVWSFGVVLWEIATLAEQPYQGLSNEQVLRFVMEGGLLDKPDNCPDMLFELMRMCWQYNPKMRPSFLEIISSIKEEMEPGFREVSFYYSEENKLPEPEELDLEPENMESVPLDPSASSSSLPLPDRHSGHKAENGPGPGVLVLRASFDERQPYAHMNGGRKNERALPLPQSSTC
Tyrosine-protein kinase Srms, sequence (Q9H3Y6 whole entry): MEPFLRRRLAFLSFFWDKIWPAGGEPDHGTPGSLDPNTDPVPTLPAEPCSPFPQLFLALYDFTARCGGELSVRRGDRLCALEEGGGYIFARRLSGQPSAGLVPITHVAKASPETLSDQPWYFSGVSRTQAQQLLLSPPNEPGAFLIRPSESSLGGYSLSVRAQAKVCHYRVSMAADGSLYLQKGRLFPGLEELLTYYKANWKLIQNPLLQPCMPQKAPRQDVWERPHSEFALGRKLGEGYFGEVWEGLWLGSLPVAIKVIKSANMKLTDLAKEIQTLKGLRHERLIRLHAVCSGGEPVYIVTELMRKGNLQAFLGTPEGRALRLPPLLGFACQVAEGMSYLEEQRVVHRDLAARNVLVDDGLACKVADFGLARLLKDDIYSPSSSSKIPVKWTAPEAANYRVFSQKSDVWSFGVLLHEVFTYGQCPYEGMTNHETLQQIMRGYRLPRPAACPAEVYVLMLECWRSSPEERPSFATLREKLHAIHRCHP
Tyrosine-protein kinase Fer, sequence (P16591 whole entry): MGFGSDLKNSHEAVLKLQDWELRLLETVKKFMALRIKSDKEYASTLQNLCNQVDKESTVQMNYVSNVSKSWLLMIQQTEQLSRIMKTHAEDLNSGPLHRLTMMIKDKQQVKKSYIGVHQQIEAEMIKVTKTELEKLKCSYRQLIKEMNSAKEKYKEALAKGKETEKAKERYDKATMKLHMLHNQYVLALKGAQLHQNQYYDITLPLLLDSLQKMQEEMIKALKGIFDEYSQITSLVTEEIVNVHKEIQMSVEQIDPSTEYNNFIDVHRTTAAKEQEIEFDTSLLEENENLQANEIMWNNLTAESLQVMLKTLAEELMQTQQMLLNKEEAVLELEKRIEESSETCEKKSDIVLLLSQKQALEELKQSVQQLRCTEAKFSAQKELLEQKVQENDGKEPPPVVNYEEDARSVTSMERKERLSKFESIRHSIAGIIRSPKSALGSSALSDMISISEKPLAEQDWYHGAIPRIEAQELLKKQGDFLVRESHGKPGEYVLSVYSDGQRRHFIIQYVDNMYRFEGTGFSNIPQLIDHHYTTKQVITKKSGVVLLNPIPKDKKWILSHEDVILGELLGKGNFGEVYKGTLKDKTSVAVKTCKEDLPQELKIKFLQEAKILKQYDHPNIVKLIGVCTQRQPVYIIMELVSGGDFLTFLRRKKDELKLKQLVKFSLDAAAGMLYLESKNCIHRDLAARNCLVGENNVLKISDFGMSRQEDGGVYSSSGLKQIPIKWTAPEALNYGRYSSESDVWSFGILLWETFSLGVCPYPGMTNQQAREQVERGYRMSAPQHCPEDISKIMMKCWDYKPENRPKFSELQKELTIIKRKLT
Dual specificity tyrosine-phosphorylation-regulated kinase 4, sequence (Q9NR20 whole entry): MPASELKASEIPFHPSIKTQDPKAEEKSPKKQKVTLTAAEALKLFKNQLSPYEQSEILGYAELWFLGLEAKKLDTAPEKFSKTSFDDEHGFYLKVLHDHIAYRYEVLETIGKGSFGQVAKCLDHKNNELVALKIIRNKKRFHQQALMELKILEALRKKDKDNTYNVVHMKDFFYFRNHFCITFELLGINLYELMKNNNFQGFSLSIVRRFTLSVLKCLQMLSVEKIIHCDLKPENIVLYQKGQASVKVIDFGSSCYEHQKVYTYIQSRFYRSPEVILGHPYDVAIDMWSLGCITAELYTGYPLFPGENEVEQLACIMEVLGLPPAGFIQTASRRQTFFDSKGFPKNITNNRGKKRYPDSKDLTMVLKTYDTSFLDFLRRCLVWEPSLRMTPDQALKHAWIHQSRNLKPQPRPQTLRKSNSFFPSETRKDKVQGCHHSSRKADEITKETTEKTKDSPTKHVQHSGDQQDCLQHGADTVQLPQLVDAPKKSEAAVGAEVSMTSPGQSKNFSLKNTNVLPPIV
SRSF protein kinase 1, sequence (Q96SB4 whole entry): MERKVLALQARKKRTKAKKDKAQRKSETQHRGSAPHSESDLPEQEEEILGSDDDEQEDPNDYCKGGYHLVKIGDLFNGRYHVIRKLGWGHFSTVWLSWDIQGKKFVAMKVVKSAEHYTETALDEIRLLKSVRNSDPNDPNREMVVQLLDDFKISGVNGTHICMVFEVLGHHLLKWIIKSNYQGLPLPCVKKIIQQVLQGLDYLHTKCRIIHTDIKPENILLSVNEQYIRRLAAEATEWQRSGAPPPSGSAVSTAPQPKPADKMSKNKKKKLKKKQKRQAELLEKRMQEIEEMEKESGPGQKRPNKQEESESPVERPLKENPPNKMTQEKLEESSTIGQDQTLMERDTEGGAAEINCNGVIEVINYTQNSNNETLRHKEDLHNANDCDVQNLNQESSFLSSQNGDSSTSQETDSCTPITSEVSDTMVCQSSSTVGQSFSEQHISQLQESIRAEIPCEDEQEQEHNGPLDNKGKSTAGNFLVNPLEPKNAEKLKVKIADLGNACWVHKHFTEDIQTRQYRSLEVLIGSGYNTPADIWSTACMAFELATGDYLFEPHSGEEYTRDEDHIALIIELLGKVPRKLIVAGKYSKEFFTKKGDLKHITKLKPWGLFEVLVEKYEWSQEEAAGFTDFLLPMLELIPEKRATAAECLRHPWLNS

SMILES: COc1cc(Br)c(C(=O)c2nccc3cc(OC)c(OC)cc23)cc1OC
- IC50 [1]: 7.37 µM (active)

- Ki [2]: > 2 µM (inactive)
- Ki [3]: 1.26 µM (active)
- Ki [4]: > 1.58 µM (inactive)
- Ki [5]: > 3.98 µM (inactive)
- Ki [6]: > 3.98 µM (inactive)
- Ki [7]: > 7.94 µM (inactive)
- Ki [8]: > 1.26 µM (inactive)
- Ki [9]: > 3.98 µM (inactive)
- Ki [10]: 1 µM (active)
- Ki [11]: > 3.16 µM (inactive)
- Ki [12]: > 1.58 µM (inactive)
- Ki [13]: > 7.94 µM (inactive)
- Ki [14]: > 2 µM (inactive)
- Ki [15]: > 1.58 µM (inactive)
- Ki [16]: > 6.31 µM (inactive)
- Ki [17]: > 7.94 µM (inactive)
- Ki [18]: > 2 µM (inactive)
- Ki [19]: 3.16 µM (active)
- Ki [20]: > 7.94 µM (inactive)
- Ki [21]: > 2.51 µM (inactive)
- Ki [22]: > 1.58 µM (inactive)
- Ki [23]: > 1.58 µM (inactive)
- Ki [24]: 5.01 µM (active)
- Ki [26]: 3.98 µM (active)
SMILES: CC(N)C1CCC(C(=O)Nc2ccnc3[nH]ccc23)CC1 (stereo unspecified)
- Ki [25]: 5.01 µM (active)
